We go through one compound from patent US20120122991A1, “METHOD FOR TREATING CANCER BY INCREASING AMP-ACTIVATED KINASE ACTIVITY” (Dana-Farber Cancer Institute, Inc., priority 2003, published 2012).

In test [1] the test system is AMPK. In words: Immunoblot of phospho-Thr172 AMPK and phospho-Ser79 ACC in MEFs. The test is classed as cell-based, mouse. The following applies: 2 mM AICAR for 2 h. The method, then:
FIG. 3a: Littermate MEFs of the indicated LKB1 genotypes were left untreated (NT) or treated with 0.1 mM H2O2 for 20 mins or 2 mM AICAR for 2 h. Total cell extracts were immunoblotted for phospho-Thr 172 AMPK or phospho Ser79 ACC, as well as for total AMPK and LKB1. FIG. 3b: An immortalized LKB1-deficient MEF cell line was reconstituted with human (hu) or mouse (ms) WT or KD LKB1 expressing retroviruses. The asterisk (*) represents a background band that serves as a loading control.
(§1) FIG. 6A: Subconfluent cycling littermate-matched primary MEFs of the indicated genotype were left untreated (NT) or were treated with 2 mM AICAR for 2 h. Total cell extracts were immunoblotted for phospho-Thr172 AMPK (P-AMPK), phospho Ser79 ACC (P-ACC), phospho-Thr389 S6K1 (P-S6K1), phospho-Ser9 GSK-3b (P-GSK-3), and phospho-Ser235/236 S6 ribosomal protein (P-S6). FIG. 6B: An immortalized LKB1−/− MEF cell line was reconstituted with vector (v), wild-type (wt) or kinase-dead (kd) human LKB1-expressing retroviruses. Cells were treated as in FIG. 6A. eIF4E was used as a loading control. *represents a cross-reactive band with the anti-LKB1 antisera as characterized previously (Shaw et al. (2004) Proc. Natl. Acad. Sci. USA 101, 3329-3335). FIG. 6C: Endogenous 5′ cap complexes were isolated from LKB1 primary MEFs as in A. 10% of the total cell lysate is shown in the left panels; cap complexes purified on 7-methyl sepharose are shown in right panels. Each were immunoblotted with total 4E-BP1 and eIF4E antibodies. eIF4E is shown as a loading control. FIG. 6D: Hela cells (which are LKB1-deficient) were transiently transfected with vector, FLAG-tagged wild-type, or kinase-dead LKB1 along with an HA-tagged S6K1 or an HA-tagged 4E-BP1 construct, then treated where indicated with 2 mM AICAR for 2 h. S6K1-immunoprecipitates were immunoblotted for activating phosphorylation of S6K1 as before, as well with anti-HA to control for levels. Lysates were immunoblotted with anti-FLAG to detect levels of LKB1 and with anti-HA to detect phosphorylation induced changes in 4E-BP1 mobility on SDS-PAGE.
Kinase Assays and Cellular Analysis: AMPK kinase activity was measured using the SAMS peptide as previously described (7). LKB1 phosphorylation of AMPK was carried out in kinase buffer (50 mM Tris pH 7.5, 10 mM MgCl2, 1 mM DTT, 100 μM ATP) for 20 mins at 30° C. For immunopreciptations of active LKB1 kinase, Flag-tagged LKB1 was co-transfected with an equimolar amount of STRAD expression plasmid into HT1080 cells and immunoprecipitated using M2-agarose (Sigma) 24 h post-transfection in NP40 lysis buffer26. Before kinase assays, immunoprecipitated LKB1 was washed 3× in lysis buffer then 2× in kinase buffer. Soluble MBP-AMPK was added at 5 μg per kinase reaction. […]
(In western blotting, separated proteins are transferred to a membrane and probed.)

Test [2] concerns mTOR signaling. In words: mTOR signaling (S6K1, 4E-BP1 phosphorylation) in transfected HeLa cells. The test is classed as cell-based, human. The following applies: HeLa cells with wild-type LKB1, 2 mM AICAR for 2 h. The method, then:
as §1, with “S6K1-immunoprecipitates were immunoblotted for activating phosphorylation of S6K1 as before, as well with anti-HA to control for levels. Lysates were immunoblotted with anti-FLAG to detect levels of LKB1 and with anti-HA to detect phosphorylation induced changes in 4E-BP1 mobility on SDS-PAGE.” left out

Take `NC(=O)c1ncn([C@@H]2O[C@H](CO)[C@@H](O)[C@H]2O)c1N` [AICAR, 5-aminoimidazole-4-carboxamide 1-β-D-ribofuranoside]: in test [1] (LKB1 null MEFs), the “Thr172 phosphorylation of AMPK” value is recorded as “complete loss of Thr172 phosphorylation”. For the same compound, the “phosphorylation of ACC (Ser79)” value in test [1] (LKB1 null MEFs) is given as “nearly abolished”. The results for the AMPK activation entry in test [1] (Lkb1-deficient fibroblasts) and in test [1] (wild-type MEFs) were “severely attenuated” and “activated”, respectively. Also, the “S6K1 and 4E-BP1 phosphorylation” value in test [2] is reported as “inhibition”.
